From US20220226337A1 (Gilead Sciences, Inc., priority 2018, published 2022)

Each compound was assayed against T1, α4β7 integrin interaction with MadCAM-1 (RPMI8866 cells) (Homo sapiens, UniProt P13612+P26010) (assay: α4β7 Integrin Cell Capture Assay). Conditions: capture of α4β7 integrin expressing RPMI8866 cells on recombinant MadCAM-1 extracellular domain-coated plate; 0.5 mM MnCl2.
T1 construct: α4β7 integrin expressing cells; endogenous in cells; host or cells: RPMI8866 cells
T1 sequence (P13612 34-1032): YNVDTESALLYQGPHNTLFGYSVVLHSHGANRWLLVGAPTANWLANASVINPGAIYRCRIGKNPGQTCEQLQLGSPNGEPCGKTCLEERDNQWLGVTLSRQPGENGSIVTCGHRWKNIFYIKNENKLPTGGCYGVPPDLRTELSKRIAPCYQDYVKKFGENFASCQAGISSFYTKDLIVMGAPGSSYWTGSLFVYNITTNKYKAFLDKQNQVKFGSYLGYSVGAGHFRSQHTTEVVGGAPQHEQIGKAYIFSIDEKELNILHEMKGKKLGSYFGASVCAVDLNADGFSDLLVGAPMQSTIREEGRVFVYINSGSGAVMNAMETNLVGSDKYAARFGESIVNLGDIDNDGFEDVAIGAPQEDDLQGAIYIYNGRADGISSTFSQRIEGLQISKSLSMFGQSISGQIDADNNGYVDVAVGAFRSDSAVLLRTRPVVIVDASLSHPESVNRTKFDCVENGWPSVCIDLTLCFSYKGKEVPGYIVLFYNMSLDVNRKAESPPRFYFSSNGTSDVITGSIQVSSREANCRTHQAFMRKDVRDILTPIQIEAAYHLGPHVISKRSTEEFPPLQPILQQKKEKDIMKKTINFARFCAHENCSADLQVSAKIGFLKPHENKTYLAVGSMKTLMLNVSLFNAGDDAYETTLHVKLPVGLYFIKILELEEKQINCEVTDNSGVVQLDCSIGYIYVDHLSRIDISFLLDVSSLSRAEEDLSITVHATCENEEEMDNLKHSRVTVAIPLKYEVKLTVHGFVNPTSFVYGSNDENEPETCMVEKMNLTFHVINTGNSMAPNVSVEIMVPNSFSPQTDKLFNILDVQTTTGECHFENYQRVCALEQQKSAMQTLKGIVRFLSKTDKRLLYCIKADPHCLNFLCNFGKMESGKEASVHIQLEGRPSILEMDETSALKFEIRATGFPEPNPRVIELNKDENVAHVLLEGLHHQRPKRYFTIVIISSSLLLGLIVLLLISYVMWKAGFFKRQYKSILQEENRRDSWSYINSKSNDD
T1 sequence (P26010 20-798): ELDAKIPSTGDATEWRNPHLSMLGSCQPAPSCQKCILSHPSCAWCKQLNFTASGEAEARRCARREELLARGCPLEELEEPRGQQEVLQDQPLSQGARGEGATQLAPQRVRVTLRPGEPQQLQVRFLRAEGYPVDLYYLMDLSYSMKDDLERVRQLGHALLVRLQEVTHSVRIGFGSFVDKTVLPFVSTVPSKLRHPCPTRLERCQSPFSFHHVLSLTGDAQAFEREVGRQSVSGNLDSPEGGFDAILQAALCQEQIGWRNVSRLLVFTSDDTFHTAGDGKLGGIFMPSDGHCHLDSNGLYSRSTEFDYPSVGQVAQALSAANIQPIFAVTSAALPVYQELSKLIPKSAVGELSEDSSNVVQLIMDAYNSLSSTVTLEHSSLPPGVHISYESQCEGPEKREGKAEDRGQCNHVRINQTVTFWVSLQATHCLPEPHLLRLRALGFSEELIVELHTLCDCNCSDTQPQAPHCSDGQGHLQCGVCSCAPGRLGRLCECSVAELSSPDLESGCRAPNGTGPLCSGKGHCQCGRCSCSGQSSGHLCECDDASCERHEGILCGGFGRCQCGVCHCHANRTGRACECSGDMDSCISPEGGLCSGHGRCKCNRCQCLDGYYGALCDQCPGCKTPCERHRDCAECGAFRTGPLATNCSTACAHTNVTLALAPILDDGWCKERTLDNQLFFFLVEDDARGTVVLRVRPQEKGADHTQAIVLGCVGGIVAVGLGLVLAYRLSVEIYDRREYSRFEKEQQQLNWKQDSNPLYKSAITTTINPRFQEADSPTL
Type: cell-based
Summary of the method: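 RPMI8866 cells (0.5×10^6 cells/mL in DMEM + 0.5% FBS + 0.5 mM MnCl2) preincubated with compound 1 h at 37 °C, then allowed to adhere 30 min at 37 °C to plates coated with MAdCAM-1 extracellular domain (1.0 μg/mL). Bound cells fixed with 2% glutaraldehyde, Hoechst-stained, imaged and counted; EC50 from cell count versus concentration.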

SMILES | EC50
O=C(N[C@@H](Cc1ccc(-c2c(Cl)cc(F)cc2Cl)c2c1OCCCO2)C(=O)O)c1c(Cl)cccc1Cl [Example 97, (S)-3-(9-(2,6-dichloro-4-fluorophenyl)-3,4-dihydro-2H-benzo[b][1,4]dioxepin-6-yl)-2-(2,6-dichlorobenzamido)propanoic acid] | 62 nM
CCOCc1cc(OC)c(-c2ccc(C[C@H](NC(=O)c3c(F)cc(NS(=O)(=O)c4ccc(-c5ccnc(F)c5)cc4)cc3F)C(=O)O)c3c2CCCO3)c(OC)c1 [Example 100, (S)-2-(2,6-difluoro-4-((4-(2-fluoropyridin-4-yl)phenyl)sulfonamido)benzamido)-3-(5-(4-(ethoxymethyl)-2,6-dimethoxyphenyl)chroman-8-yl)propanoic acid] | 1.67 nM
CN1CCCc2c(C[C@H](NC(=O)c3c(F)cccc3F)C(=O)O)ccc(-c3c(Cl)cc(F)cc3Cl)c21 [Example 102, (S)-3-(8-(2,6-dichloro-4-fluorophenyl)-1-methyl-1,2,3,4-tetrahydroquinolin-5-yl)-2-(2,6-difluorobenzamido)propanoic acid] | 267 nM
Cc1c(-c2ccc(C[C@H](NC(=O)c3c(F)cccc3F)C(=O)O)c3c2CCC3)c(=O)n(C)c2ccc(F)cc12 [Example 105, (S)-2-(2,6-difluorobenzamido)-3-(7-(6-fluoro-1,4-dimethyl-2-oxo-1,2-dihydroquinolin-3-yl)-2,3-dihydro-1H-inden-4-yl)propanoic acid] | 2.44 nM
Cc1nc(-c2ccc(C[C@H](NC(=O)c3c(F)cc(N4CCOC[C@@H]4C(F)(F)F)cc3F)C(=O)O)c3c2OCCC3)c(=O)n(C)c1C [Example 108, (S)-2-(2,6-difluoro-4-((R)-3-(trifluoromethyl)morpholino)benzamido)-3-(8-(4,5,6-trimethyl-3-oxo-3,4-dihydropyrazin-2-yl)chroman-5-yl)propanoic acid] | 0.26 nM
Cn1c(=O)n(-c2ccc(C[C@H](NC(=O)c3c(F)cc(N4CCOC[C@@H]4C(F)(F)F)cc3F)C(=O)O)c3c2OCCC3)c(=O)c2ccncc21 [Example 124] | 0.065 nM
Cc1nc(-c2ccc(C[C@@H](C(=O)O)N(C)C(=O)c3c(F)cc(N4CCOC[C@@H]4C(F)(F)F)cc3F)c3c2OCCC3)c(=O)n(C)c1C [Example 125] | 94.9 nM
CC[C@@H](Nc1cc(F)c(C(=O)N[C@@H](Cc2ccc(-c3c(C)nc(C)n(C)c3=O)c3c2CCCO3)C(=O)O)c(F)c1F)C(F)(F)F [Example 126] | 0.379 nM
Cn1c2c(nc(-c3ccc(C[C@H](NC(=O)c4c(F)cc(N5CCOC[C@@H]5C(F)(F)F)cc4F)C(=O)O)c4c3OCCC4)c1=O)CCCC2 [Example 127] | 0.455 nM
Cc1cc(N2CCOC[C@@H]2C(F)(F)F)cc(F)c1C(=O)N[C@@H](Cc1ccc(-c2cnc(C)n(C)c2=O)c2c1CCCO2)C(=O)O [Example 128] | 0.446 nM
Cc1cc(N2CCOC[C@@H]2C(F)(F)F)cc(F)c1C(=O)N[C@@H](Cc1ccc(-c2c(C)nc(C)n(C)c2=O)c2c1CCCO2)C(=O)O [Example 129] | 0.189 nM
Cc1nc(C)n(C)c(=O)c1-c1ccc(C[C@H](NC(=O)c2c(F)cc(N3CCOC[C@@H]3C(F)(F)F)cc2F)C(=O)O)c2c1OCCC2 [Example 130] | 0.341 nM

Continued by falling EC50, values first:

EC50 | SMILES
97.8 nM | O=C(N[C@@H](Cc1ccc(-c2c(Cl)cc(F)cc2Cl)c2c1OCCC2)C(=O)O)c1c(F)cccc1F [Example 98, (S)-3-(5-(2,6-dichloro-4-fluorophenyl)chroman-8-yl)-2-(2,6-difluorobenzamido)propanoic acid]
96 nM | O=C1CCc2c(C[C@H](NC(=O)c3c(F)cccc3F)C(=O)O)ccc(-c3c(Cl)cc(F)cc3Cl)c2N1 [Example 103, (S)-3-(8-(2,6-dichloro-4-fluorophenyl)-2-oxo-1,2,3,4-tetrahydroquinolin-5-yl)-2-(2,6-difluorobenzamido)propanoic acid]
88.7 nM | O=C(N[C@@H](Cc1ccc(-c2c(Cl)cc(F)cc2Cl)c2c1CCC2)C(=O)O)c1c(F)cccc1F [Example 104, (S)-3-(7-(2,6-dichloro-4-fluorophenyl)-2,3-dihydro-1H-inden-4-yl)-2-(2,6-difluorobenzamido)propanoic acid]
26.9 nM | O=C(N[C@@H](Cc1ccc(-c2c(Cl)cc(F)cc2Cl)c2c1CCCN2)C(=O)O)c1c(F)cccc1F [Example 101, (S)-3-(8-(2,6-dichloro-4-fluorophenyl)-1,2,3,4-tetrahydroquinolin-5-yl)-2-(2,6-difluorobenzamido)propanoic acid]
19 nM | COCN(C(=O)c1c(F)cc(N2CCOC[C@@H]2C(F)(F)F)cc1F)[C@@H](Cc1ccc(-c2nc(C)c(C)n(C)c2=O)c2c1CCCO2)C(=O)O [Example 116]
9.33 nM | CCOCc1cc(OC)c(-c2ccc(C[C@H](NC(=O)c3c(F)cccc3F)C(=O)O)c3c2CCCO3)c(OC)c1 [Example 99, (S)-2-(2,6-difluorobenzamido)-3-(5-(4-(ethoxymethyl)-2,6-dimethoxyphenyl)chroman-8-yl)propanoic acid]
1.56 nM | Cc1nc(-c2ccc(C[C@H](NC(=O)c3c(F)cc(N4CC[C@@H]4C(F)(F)F)cc3F)C(=O)O)c3c2OCCC3)c(=O)n(C)c1C [Example 131]
1.42 nM | Cn1nc(C(F)(F)F)cc(-c2ccc(C[C@H](NC(=O)c3c(F)cc(N4CCOC[C@@H]4C(F)(F)F)cc3F)C(=O)O)c3c2OCCC3)c1=O [Example 133]
0.978 nM | Cn1cc(C(F)(F)F)nc(-c2ccc(C[C@H](NC(=O)c3c(F)cc(N4CCOC[C@@H]4C(F)(F)F)cc3F)C(=O)O)c3c2OCCC3)c1=O [Example 123]
0.812 nM | COc1cccc(OC)c1-c1ccc(CC(NC(=O)c2c(F)cc(NS(=O)(=O)c3ccc(-n4cncn4)cc3)cc2F)C(=O)O)c2c1CN(C(C)=O)CC2 (stereo not drawn) [Example 107]
0.758 nM | Cc1nc(-c2ccc(C[C@H](NC(=O)c3c(F)cc(N4CCOC[C@@H]4C(F)(F)F)c(F)c3F)C(=O)O)c3c2OCCC3)c(=O)n(C)c1C [Example 121]
0.587 nM | COc1cccc(OC)c1-c1ccc(CC(NC(=O)c2c(F)cc(NS(=O)(=O)c3ccc(-n4cncn4)cc3)cc2F)C(=O)O)c2c1CN(C)CC2 (stereo not drawn) [Example 106, 2-(4-((4-(1H-1,2,4-triazol-1-yl)phenyl)sulfonamido)-2,6-difluorobenzamido)-3-(8-(2,6-dimethoxyphenyl)-2-methyl-1,2,3,4-tetrahydroisoquinolin-5-yl)propanoic acid]
0.271 nM | CC[C@@H](Nc1cc(F)c(C(=O)N[C@@H](Cc2ccc(-c3nc(C)c(C)n(C)c3=O)c3c2CCCO3)C(=O)O)c(F)c1F)C(F)(F)F [Example 122]
0.193 nM | Cn1ncc(C(F)(F)F)c(-c2ccc(C[C@H](NC(=O)c3c(F)cc(N4CCOC[C@@H]4C(F)(F)F)cc3F)C(=O)O)c3c2OCCC3)c1=O [Example 132]
0.027 nM | Cc1cc(N2CCOC[C@@H]2C(F)(F)F)cc(F)c1C(=O)N[C@@H](Cc1ccc(-n2c(=O)c3ccncc3n(C)c2=O)c2c1CCCO2)C(=O)O [Example 115, (S)-2-(2-fluoro-6-methyl-4-((R)-3-(trifluoromethyl)morpholino)benzamido)-3-(8-(1-methyl-2,4-dioxo-1,4-dihydropyrido[3,4-d]pyrimidin-3(2H)-yl)chroman-5-yl)propanoic acid]
